Source: patent publication US20170208799A1, “SYNERGISTIC ANTIMICROBIAL COMPOSITION” (Dow Global Technologies LLC, priority 2014, published 2017)

How the values were obtained:
Type in all cases: cell-based
[1] = test system: Aerobic bacteria: Klebsiella pneumoniae (ATCC 8308), Bacillus subtilis (ATCC 8473), Pseudomonas aeruginosa (ATCC 15442), Staphylococcus aureus (ATCC 6538); test: Synergy test in 96 well microtiter plate against aerobic bacteria; details: end point, 24 hours; for Aqucar TN-50 (ppm THNM) - QA: THNM alone
Description: The synergism of the biocides combination of the present invention was determined using the method described by Kull, F. C, et al. in Applied Microbiology 9:538-541 (1961). […] If end point could not be established, the highest concentration of biocide tested will be used as the end point for the calculation and the SI will be recorded in “less than or <” values. […] The type of microorganisms used for the test inoculums, the matrix to support optimum microbial growth during the test period and the medium used to enumerate the microorganisms after specified contact time are summarized in Table 2. Mineral salts medium (MSM). The medium contains (in mg/l) the following components: FeCl3.6H2O (1); CaCl2.2H2O (10); MgSO4.7H2O (22.5); (NH4)2SO4 (40); KH2PO4 (10); K2HPO4 (25.5); Yeast Extract (10); and glucose (100). After all components are added to deionized water, the pH of the medium is adjusted to 7.5 before use. [table] Synergy tests of THNM alone and in combination with a second biocide against the different test microorganisms were conducted using standard 96 well microtiter plate assays. The test was carried out by adding 500 uL of matrix, 50 μl of tested organism and 50 μl of each biocide into wells of the microtiter plate. The final biocides and test inoculum concentrations in each well were established based on this total volume. For each experiment, the final concentration of the test organisms was in the range of 10^6 to 10^7 cfu/ml. The highest concentration of THNM and second biocide used in this synergy study was 250 and 100 or 50 ppm (depending on the efficacy of the active), respectively. Eight 2-fold dilutions of each biocide were prepared using an automated liquid handling system. The first biocide was added into the well plate horizontally and the second biocide is added after rotating the plate 90 degrees. Columns nine and ten were reserved for each individual biocide to be tested at each concentration level to achieve at least 4-log bacterial kill or 2-log bacterial count (defined as end point) for synergy index calculation. In case the end point was not achieved, the highest biocide concentration tested was used for synergy index calculation. Wells in Column 11 were used as positive controls; they contained only the media and the test organism. The plates were incubated at 25° C. for aerobic bacteria and 32° C. for anaerobic bacteria. Enumeration was performed 24 hours contact time by employing the MPN method. Numbers of surviving bacteria were determined by removing 20 uL of the cell suspension from each well and adding it into 180 ul of enumeration media (i.e., resazurin TSB plates) then serially dilute in a 96-well block. Plates were incubated for 48 hours or until growth is observed in the control wells.

[2] = test system: Desulfuvibrio longus (D. longus); test: Synergy test in 96 well microtiter plate against anaerobic sulfate reducing bacteria; details: end point, 32° C.; for Aqucar TN-50 (ppm THNM) - QA: THNM alone
Description: The synergism of the biocides combination of the present invention was determined using the method described by Kull, F. C, et al. in Applied Microbiology 9:538-541 (1961). […] If end point could not be established, the highest concentration of biocide tested will be used as the end point for the calculation and the SI will be recorded in “less than or <” values. […] The type of microorganisms used for the test inoculums, the matrix to support optimum microbial growth during the test period and the medium used to enumerate the microorganisms after specified contact time are summarized in Table 2. SNF (per liter of deionized water): NaCl, 3.12 gm; NaHCO3 0.131 gm; Na2SO4 0.17 gm; 1% KCl Solution (in water) 4.77 g; 1% CaCl2 Solution (in water) 7.2 gm; 1% MgSO4 Solution (in water) 5.45 gm; 1% Na2CO3 Solution (in water) 4.39 gm. Adjust the pH to 7 before use. Modified Baar's medium (MB): MgSO4, 2 g/l; sodium citrate, 5 g/l; CaSO4, 1 g/l; NH4Cl, g/l; K2HPO4, 0.5 g/l; sodium lactate, 3.5 g/l; yeast extract, 1 g/l; Sodium thioglycolate 0. g/l. Fe(NH4)2(SO4)2 1 g/l, deionized water. Adjust the pH to 7.5 before sodium thioglycolate is added. [table] Synergy tests of THNM alone and in combination with a second biocide against the different test microorganisms were conducted using standard 96 well microtiter plate assays. The test was carried out by adding 500 uL of matrix, 50 μl of tested organism and 50 μl of each biocide into wells of the microtiter plate. The final biocides and test inoculum concentrations in each well were established based on this total volume. For each experiment, the final concentration of the test organisms was in the range of 10^6 to 10^7 cfu/ml. The highest concentration of THNM and second biocide used in this synergy study was 250 and 100 or 50 ppm (depending on the efficacy of the active), respectively. Eight 2-fold dilutions of each biocide were prepared using an automated liquid handling system. The first biocide was added into the well plate horizontally and the second biocide is added after rotating the plate 90 degrees. Columns nine and ten were reserved for each individual biocide to be tested at each concentration level to achieve at least 4-log bacterial kill or 2-log bacterial count (defined as end point) for synergy index calculation. In case the end point was not achieved, the highest biocide concentration tested was used for synergy index calculation. Wells in Column 11 were used as positive controls; they contained only the media and the test organism. The plates were incubated at 25° C. for aerobic bacteria and 32° C. for anaerobic bacteria. Enumeration was performed 24 hours contact time by employing the MPN method. Numbers of surviving bacteria were determined by removing 20 uL of the cell suspension from each well and adding it into 180 ul of enumeration media (i.e., resazurin TSB plates) then serially dilute in a 96-well block. Plates were incubated for 48 hours or until growth is observed in the control wells.

[3] = test system: Field isolate, Acid Producing bacteria (APB); test: Synergy test in 96 well microtiter plate against anaerobic acid producing bacteria; details: end point, Environmental isolate APB, 24 hours, 32° C.; for Aqucar TN-50 (ppm THNM) - QA: THNM alone
Description: The synergism of the biocides combination of the present invention was determined using the method described by Kull, F. C, et al. in Applied Microbiology 9:538-541 (1961). […] If end point could not be established, the highest concentration of biocide tested will be used as the end point for the calculation and the SI will be recorded in “less than or <” values. […] The type of microorganisms used for the test inoculums, the matrix to support optimum microbial growth during the test period and the medium used to enumerate the microorganisms after specified contact time are summarized in Table 2. Mineral salts medium (MSM No Nutrients). The medium contains (in mg/l) the following components: FeCl3.6H2O (1); CaCl2.2H2O (10); MgSO4.7H2O (22.5); (NH4)2SO4 (40); KH2PO4 (10); and K2HPO4 (25.5). After all components are added to deionized water, the pH of the medium is adjusted to 7.5 before use. [table] Synergy tests of THNM alone and in combination with a second biocide against the different test microorganisms were conducted using standard 96 well microtiter plate assays. The test was carried out by adding 500 uL of matrix, 50 μl of tested organism and 50 μl of each biocide into wells of the microtiter plate. The final biocides and test inoculum concentrations in each well were established based on this total volume. For each experiment, the final concentration of the test organisms was in the range of 10^6 to 10^7 cfu/ml. The highest concentration of THNM and second biocide used in this synergy study was 250 and 100 or 50 ppm (depending on the efficacy of the active), respectively. Eight 2-fold dilutions of each biocide were prepared using an automated liquid handling system. The first biocide was added into the well plate horizontally and the second biocide is added after rotating the plate 90 degrees. Columns nine and ten were reserved for each individual biocide to be tested at each concentration level to achieve at least 4-log bacterial kill or 2-log bacterial count (defined as end point) for synergy index calculation. In case the end point was not achieved, the highest biocide concentration tested was used for synergy index calculation. Wells in Column 11 were used as positive controls; they contained only the media and the test organism. The plates were incubated at 25° C. for aerobic bacteria and 32° C. for anaerobic bacteria. Enumeration was performed 24 hours contact time by employing the MPN method. Numbers of surviving bacteria were determined by removing 20 uL of the cell suspension from each well and adding it into 180 ul of enumeration media (i.e., resazurin TSB plates) then serially dilute in a 96-well block. Plates were incubated for 48 hours or until growth is observed in the control wells.

N-alkyl (50% C14, 40% C12, 10% C16) dimethylbenzyl ammonium Chloride [ADBAC]
Maquat MC1412 (ppm ADBAC) - QB ([1]; ADBAC alone, aerobic bacteria, 25° C.): >50 ppm
Maquat MC1412 (ppm ADBAC) - QB ([2]; ADBAC alone, 24 hours): 6.25 ppm
Maquat MC1412 (ppm ADBAC) - QB ([3]; ADBAC alone): 12.5 ppm

Benzalkonium chloride (benzyl-C8-18-alkyldimethyl, chlorides) [BKC]
Benzalkonium Chloride (ppm BKC) - QB ([1]; BKC alone, aerobic bacteria, 25° C.): >50 ppm
BKC (ppm ADBAC) - QB ([2]; BKC alone, 24 hours): 3.13 ppm
BKC (ppm ADBAC) - QB ([3]; BKC alone): 12.50 ppm

O=[N+]([O-])C(CO)(CO)CO [THNM, Tris(hydroxymethyl)nitromethane]
Aqucar TN-50 (ppm THNM) - QA ([1]; Table 3, aerobic bacteria, 25° C.): >250 ppm
Aqucar TN-50 (ppm THNM) - QA ([1]; Table 4, aerobic bacteria, 25° C.): >250 ppm
Aqucar TN-50 (ppm THNM) - QA ([1]; Table 5, aerobic bacteria, 25° C.): >250 ppm
Aqucar TN-50 (ppm THNM) - QA ([1]; Table 6): >250 ppm
Aqucar TN-50 (ppm THNM) - QA ([2]; Table 7, 24 hours): 250.00 ppm
Aqucar TN-50 (ppm THNM) - QA ([2]; Table 8, 24 hours): 250.00 ppm
Aqucar TN-50 (ppm THNM) - QA ([2]; Table 9, 24 hours): 250.00 ppm
Aqucar TN-50 (ppm THNM) - QA ([2]; Table 10, 24 hours): 250.00 ppm
Aqucar TN-50 (ppm THNM) - QA ([3]; Table 11): >250 ppm
Aqucar TN-50 (ppm THNM) - QA ([3]; Table 12): >250 ppm
Aqucar TN-50 (ppm THNM) - QA ([3]; Table 13): >250 ppm
Aqucar TN-50 (ppm THNM) - QA ([3]; Table 14): >250 ppm
